Data: the supplement of paper PMC10307832

Legend:
Assay in all cases: relative viability (nuclei count vs DMSO), 5 days (fraction); higher = more cells survive
Alpelisib + Palbociclib = compound: Cc1nc(NC(=O)N2CCC[C@H]2C(N)=O)sc1-c1ccnc(C(C)(C)C(F)(F)F)c1 [Alpelisib] + CC(=O)c1c(C)c2cnc(Nc3ccc(N4CCNCC4)cn3)nc2n(C2CCCC2)c1=O [Palbociclib] (partner 0.5 µM)
Outline: (§1)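 Medians of duplicate plates are given as relative viability. That measure is the nuclei count in treated wells divided by the count in vehicle wells. Counts were taken on 4× images of lung cancer cell lines in 1536-well plates, 5 days after pin-tool dosing the day after seeding with one drug alone or a fixed anchor-drug dose plus five library-drug doses (not always all listed) in √10 steps.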

Alpelisib + Decitabine = compound: Cc1nc(NC(=O)N2CCC[C@H]2C(N)=O)sc1-c1ccnc(C(C)(C)C(F)(F)F)c1 [Alpelisib] + Nc1ncn([C@H]2C[C@H](O)[C@@H](CO)O2)c(=O)n1 [Decitabine] (partner 2 µM)
Outline: as §1

Alpelisib + AZD7762 = compound: Cc1nc(NC(=O)N2CCC[C@H]2C(N)=O)sc1-c1ccnc(C(C)(C)C(F)(F)F)c1 [Alpelisib] + NC(=O)Nc1cc(-c2cccc(F)c2)sc1C(=O)N[C@H]1CCCNC1 [AZD7762] (partner 0.2 µM)
Outline: as §1

Vemurafenib + Trametinib = compound: CCCS(=O)(=O)Nc1ccc(F)c(C(=O)c2c[nH]c3ncc(-c4ccc(Cl)cc4)cc23)c1F [Vemurafenib] + CC(=O)Nc1cccc(-n2c(=O)n(C3CC3)c(=O)c3c(Nc4ccc(I)cc4F)n(C)c(=O)c(C)c32)c1 [Trametinib] (partner 0.02 µM)
Outline: as §1

Cell Line | relative viability (Alpelisib + Palbociclib; first compound 0.04 µM) | relative viability (Alpelisib + Palbociclib; first compound 0.1265 µM) | relative viability (Alpelisib + Palbociclib; first compound 0.4 µM) | relative viability (Alpelisib + Palbociclib; first compound 1.265 µM) | relative viability (Alpelisib + Palbociclib; first compound 4 µM) | relative viability (Alpelisib + Decitabine; first compound 0.04 µM) | relative viability (Alpelisib + Decitabine; first compound 0.1265 µM) | relative viability (Alpelisib + Decitabine; first compound 0.4 µM) | relative viability (Alpelisib + Decitabine; first compound 1.265 µM) | relative viability (Alpelisib + Decitabine; first compound 4 µM) | relative viability (Alpelisib + AZD7762; first compound 0.04 µM) | relative viability (Alpelisib + AZD7762; first compound 0.1265 µM) | relative viability (Alpelisib + AZD7762; first compound 0.4 µM) | relative viability (Alpelisib + AZD7762; first compound 1.265 µM) | relative viability (Alpelisib + AZD7762; first compound 4 µM) | relative viability (Vemurafenib + Trametinib; first compound 0.03162 µM) | relative viability (Vemurafenib + Trametinib; first compound 0.1 µM) | relative viability (Vemurafenib + Trametinib; first compound 0.3162 µM) | relative viability (Vemurafenib + Trametinib; first compound 1 µM)
NCI-H2342 | 0.57 | 0.509 | 0.518 | 0.467 | 0.414 | 0.697 | 0.666 | 0.701 | 0.711 | 0.503 | 0.477 | 0.421 | 0.506 | 0.497 | 0.426 | 0.921 | 0.747 | 0.978 | 0.769
SW 1573 | 0.409 | 0.401 | 0.366 | 0.201 | 0.284 | 0.489 | 0.453 | 0.626 | 0.365 | 0.359 | – | – | – | – | – | 0.556 | 0.612 | 0.679 | 0.49
NCI-H1792 | 0.631 | 0.62 | 0.658 | 0.508 | 0.321 | 0.444 | 0.368 | 0.581 | 0.443 | 0.401 | 0.59 | 0.534 | 0.783 | 0.465 | 0.36 | 0.495 | 0.482 | – | 0.548
LOU-NH91 | 0.586 | 0.511 | 0.547 | 0.511 | 0.496 | 0.823 | 0.781 | 0.79 | 0.679 | 0.648 | 0.735 | 0.608 | 0.663 | 0.556 | 0.543 | 0.743 | 0.656 | 0.642 | 0.861
LC-2-ad | 0.547 | 0.47 | 0.467 | 0.404 | 0.409 | 0.823 | 0.767 | 0.83 | 0.735 | 0.768 | 0.812 | 0.874 | 0.863 | 0.684 | 0.583 | 0.868 | 0.815 | 0.998 | 0.921
HOP-62 | 0.43 | 0.425 | 0.508 | 0.309 | 0.417 | 0.259 | 0.22 | 0.216 | 0.234 | 0.283 | 0.607 | 0.386 | 1.21 | 0.651 | 0.614 | 0.419 | 0.36 | 0.416 | 0.594
CAL-12T | 0.413 | 0.38 | 0.647 | 0.415 | 0.355 | – | – | – | – | – | 0.7 | 0.593 | 0.754 | 0.566 | 0.643 | 0.28 | 0.289 | 0.438 | 0.442
NCI-H520 | 0.241 | 0.235 | 0.195 | 0.19 | 0.189 | 0.422 | 0.531 | 0.481 | 0.442 | 0.412 | – | – | – | – | – | 0.688 | 0.599 | 0.706 | 0.662
COR-L 105 | 0.394 | 0.439 | 0.414 | 0.367 | 0.364 | 0.55 | 0.736 | 0.706 | 0.683 | 0.569 | – | – | – | – | – | 0.418 | – | 0.428 | 0.655
SK-LU-1 | 0.398 | 0.372 | 0.386 | 0.326 | 0.377 | 0.649 | 0.645 | 0.633 | 0.577 | 0.589 | – | – | – | – | – | 0.468 | 0.515 | 0.459 | 0.432
NCI-H1703 | – | – | – | – | – | – | – | – | – | – | 0.0965 | 0.129 | 0.125 | 0.103 | 0.116 | – | – | – | –
NCI-H661 | 0.365 | 0.367 | 0.411 | 0.412 | 0.359 | 0.56 | 0.586 | 0.576 | 0.474 | 0.495 | – | – | – | – | – | 0.522 | 0.475 | 0.517 | 0.606
NCI-H2009 | 0.235 | 0.23 | 0.245 | 0.215 | 0.164 | 0.35 | 0.458 | 0.398 | 0.389 | 0.354 | – | – | – | – | – | 0.269 | 0.272 | 0.21 | 0.372
NCI-H2228 | 0.748 | 0.519 | 0.771 | 0.332 | 0.355 | – | – | – | – | – | – | – | – | – | – | 0.357 | 0.524 | 0.668 | 0.439
SK-MES-1 | 0.361 | 0.307 | 0.313 | 0.254 | 0.3 | 0.363 | 0.376 | 0.358 | 0.292 | 0.297 | – | – | – | – | – | 0.569 | – | 0.589 | 0.763
NCI-H596 | – | – | – | – | – | 1 | 0.954 | 1.01 | 0.699 | 0.61 | 0.895 | 1.05 | 1.03 | 0.725 | 0.472 | 0.792 | 0.723 | 0.885 | 0.888
NCI-H2023 | 0.312 | 0.309 | 0.326 | 0.258 | 0.223 | 0.205 | 0.188 | 0.234 | 0.245 | 0.183 | – | – | – | – | – | 0.592 | 0.489 | 0.597 | 0.699
COR-L23 | 0.271 | 0.241 | 0.253 | 0.215 | 0.212 | 0.423 | 0.427 | 0.438 | 0.333 | 0.355 | – | – | – | – | – | 0.619 | 0.58 | 0.433 | 0.691
NCI-H1650 | 0.423 | 0.275 | 0.403 | 0.29 | 0.298 | 0.346 | 0.365 | 0.389 | 0.345 | 0.362 | – | – | – | – | – | 0.595 | 0.406 | 0.633 | 0.577
A549 | – | – | – | – | – | 0.197 | 0.294 | 0.322 | 0.25 | 0.229 | – | – | – | – | – | – | – | – | –
ABC-1 | 0.653 | 0.611 | 0.732 | 0.385 | 0.454 | 1.15 | 1 | 1.21 | 0.612 | 1.12 | 0.996 | 0.875 | 1.2 | 0.598 | 0.69 | – | – | – | –
